Measurements: paper PMC9414972, “α-Glucosidase and α-Amylase Inhibitory Potentials of Quinoline–1,3,4-oxadiazole Conjugates Bearing 1,2,3-Triazole with Antioxidant Activity, Kinetic Studies, and Computational Validation” (Pharmaceuticals, 2022)
Like-named read-outs stand apart in the source and are kept apart here.

Columns and labels:
[1] = Nitric oxide (NO) scavenging activity
Description: The screening of the present compound series for NO radical scavenging activity (Table 2) identified excellent NO scavengers.
The antioxidant capacity of the compounds to scavenge nitric oxide radicals was determined using a modified version of the protocol by Kurian et al.. Briefly, 250 μL of sodium nitroprusside (10 mM) prepared in sodium phosphate buffer (pH 7.4) was added to 500 μL of the compound solution (62.5–500 μM) or distilled water (control). The resulting solution was incubated at 37 °C for 2 h. Then, 250 μL of Griess reagent was added to the reaction mixture before the absorbance was measured at 546 nm. The nitric oxide scavenging activity of the compounds was calculated with the formula: Nitric oxide scavenging (%)=1−Absorbance of compound/Absorbance of control×100

α-glucosidase = target: T1, α-glucosidase (Saccharomyces cerevisiae, UniProt P38158); assay: biochemical
T1 construct: purchased Merck
Description: The α-glucosidase inhibitory activity was evaluated using a previous method with slight modifications.

[2] = Ferric reducing antioxidant power (FRAP)
Description: FRAP is a ferric (Fe^3+) to ferrous (Fe^2+) ions reduction assay that measures a compound’s electron-donating capacity, i.e., the antioxidant’s reducing power.
The mixture was incubated at 50 °C for 20 min, followed by acidification with 100 μL trichloroacetic acid (10%). After centrifugation at 3500 rpm for 10 min, 200 μL of the supernatant was transferred into another test tube containing 200 μL of distilled water and 0.8 mL of FeCl3 (0.1%). Finally, the absorbance was read at 700 nm, and the total reductive antioxidant power was calculated thus: Ferric reducing antioxidant power (%)=Absorbance of compound/Absorbance of 500µM gallic acid×100

[3] = DPPH radical scavenging activity
Description: The DPPH assay is used conventionally to quantify a compound’s ability to trap free radicals.
The compounds were evaluated for their ability to scavenge stable DPPH radicals, using a modification of the method by Turkoglu et al..

[4] = target: T2, porcine pancreatic amylase (Sus scrofa, UniProt P00690); assay: α-Amylase inhibitory activity (starch/DNS); type: biochemical
T2 construct: purchased Merck
T2 sequence (P00690 16-511): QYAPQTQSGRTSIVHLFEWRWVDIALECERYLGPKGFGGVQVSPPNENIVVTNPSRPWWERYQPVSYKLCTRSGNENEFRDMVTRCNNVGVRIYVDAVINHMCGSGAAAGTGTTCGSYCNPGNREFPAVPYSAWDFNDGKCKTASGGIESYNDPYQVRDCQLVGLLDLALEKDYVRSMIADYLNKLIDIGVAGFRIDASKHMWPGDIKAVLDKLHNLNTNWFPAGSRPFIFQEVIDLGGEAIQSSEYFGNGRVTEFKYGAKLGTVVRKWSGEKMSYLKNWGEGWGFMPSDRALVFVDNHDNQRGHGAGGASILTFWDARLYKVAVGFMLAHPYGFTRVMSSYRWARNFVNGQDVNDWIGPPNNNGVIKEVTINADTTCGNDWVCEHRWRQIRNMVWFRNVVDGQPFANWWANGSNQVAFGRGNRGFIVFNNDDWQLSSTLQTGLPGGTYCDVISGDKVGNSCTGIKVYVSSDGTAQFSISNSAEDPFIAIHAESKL
Description: α-Amylase inhibitory activity was determined according to Ibitoye et al. with slight modifications. […] The reaction in the mixture was terminated with a 1 mL dinitrosalicylate reagent before boiling for 10 min. The cooled mixture was diluted with 5 mL distilled water, and the absorbance was read at 540 nm. The inhibitory activity was calculated using the formula below: % Inhibition=1−Absorbance of compound/Absorbance of control×100

[5] = nitric oxide radical scavenging, 37 °C, 2 h
[6] = pNPG substrate, pH 6.8, 37 °C, read-out: IC50 α-Glucosidase
[7] = ferric reducing antioxidant power
[8] = DPPH radical scavenging, 30 min, 25 °C
[9] = porcine pancreatic amylase, starch, pH 6.9, 25 °C, read-out: IC50 α-Amylase

T1 sequence (P38158 whole entry): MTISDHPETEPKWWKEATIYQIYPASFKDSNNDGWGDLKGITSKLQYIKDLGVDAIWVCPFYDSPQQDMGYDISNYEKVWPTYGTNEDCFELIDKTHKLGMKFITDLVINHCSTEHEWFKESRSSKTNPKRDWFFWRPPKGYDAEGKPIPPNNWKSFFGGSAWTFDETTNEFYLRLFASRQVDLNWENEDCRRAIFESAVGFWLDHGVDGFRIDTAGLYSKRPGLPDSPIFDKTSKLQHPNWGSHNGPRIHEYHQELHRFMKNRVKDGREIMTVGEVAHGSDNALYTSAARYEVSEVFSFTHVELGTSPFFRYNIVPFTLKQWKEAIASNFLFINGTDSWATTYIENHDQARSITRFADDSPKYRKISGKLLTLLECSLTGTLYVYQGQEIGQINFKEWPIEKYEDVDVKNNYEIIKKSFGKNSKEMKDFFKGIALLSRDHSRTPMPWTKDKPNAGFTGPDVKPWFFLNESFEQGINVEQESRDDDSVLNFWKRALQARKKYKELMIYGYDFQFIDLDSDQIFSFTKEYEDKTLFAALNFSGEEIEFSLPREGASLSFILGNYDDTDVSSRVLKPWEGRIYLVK

Row | SMILES | IC50 [1, 5] [µM] | IC50 (α-glucosidase; [6]) [µM] | IC50 [2, 7] [µM] | IC50 [3, 8] [µM] | IC50 [4, 9] [µM] | melting point [°C] | IC50 (α-glucosidase) [µM] | IC50 [1] [µM] | IC50 [2] [µM] | IC50 [3] [µM] | IC50 [4] [µM]
1 | CCSc1nnc(COc2cccc3cccnc23)o1 [4a, 2-(Ethylthio)-5-[(quinolin-8-yloxy)methyl]-1,3,4-oxadiazole] | 2.67 | 41.6 | > 500 | 70.9 | > 500 | 80.7 to 83.1 |  |  |  |  | 
2 | CCCCSc1nnc(COc2cccc3cccnc23)o1 [4c, 2-(Butylthio)-5-[(quinolin-8-yloxy)methyl]-1,3,4-oxadiazole] | > 500 | 41.4 | > 500 | 79 | > 500 | 88.3 to 93.5 |  |  |  |  | 
3 | CCCCCSc1nnc(COc2cccc3cccnc23)o1 [4d, 2-(Pentylthio)-5-[(quinolin-8-yloxy)methyl]-1,3,4-oxadiazole] | 457 | 46.7 | > 500 | 82.9 | > 500 | 84.6 to 90.1 |  |  |  |  | 
4 | CCCCCCSc1nnc(COc2cccc3cccnc23)o1 [4e, 2-(Hexylthio)-5-[(quinolin-8-yloxy)methyl]-1,3,4-oxadiazole] | > 500 | 48.1 | > 500 | 75.7 | 210 |  |  |  |  |  | 
5 | C=CCSc1nnc(COc2cccc3cccnc23)o1 [4f, 2-(Allylthio)-5-[(quinolin-8-yloxy)methyl]-1,3,4-oxadiazole] | > 500 | 34.5 | > 500 | 72.1 | > 500 |  |  |  |  |  | 
6 | CC(C)=CCSc1nnc(COc2cccc3cccnc23)o1 [4g, 2-[(3-Methylbut-2-en-1-yl)thio]-5-[(quinolin-8-yloxy)methyl]-1,3,4-oxadiazole] | > 500 | 34.1 | > 500 | 86.4 | > 500 |  |  |  |  |  | 
7 | BrCCSc1nnc(COc2cccc3cccnc23)o1 [4h, 2-[(2-Bromoethyl)thio]-5-[(quinolin-8-yloxy)methyl]-1,3,4-oxadiazole] | > 500 |  | > 500 | 75.4 |  |  |  |  |  |  | 
8 | Brc1ccc(CSc2nnc(COc3cccc4cccnc34)o2)cc1 [4m, 2-[(4-Bromobenzyl)thio]-5-[(quinolin-8-yloxy)methyl]-1,3,4-oxadiazole] | > 500 |  | > 500 | 85.2 | > 500 | 120.9 to 124.1 | 28.3 |  |  |  | 
9 | O=[N+]([O-])c1ccc(CSc2nnc(COc3cccc4cccnc34)o2)cc1 [4n, 2-[(4-Nitrobenzyl)thio]-5-[(quinolin-8-yloxy)methyl]-1,3,4-oxadiazole] | > 500 | 32.8 | > 500 | 77.2 | > 500 | 156.6 to 160.1 |  |  |  |  | 
10 | Fc1cccc(CSc2nnc(COc3cccc4cccnc34)o2)c1 [4o, 2-[(3-Fluorobenzyl)thio]-5-[(quinolin-8-yloxy)methyl]-1,3,4-oxadiazole] | > 500 | 48.8 | > 500 | 76.9 | > 500 |  |  |  |  |  | 
11 | Clc1cccc(CSc2nnc(COc3cccc4cccnc34)o2)c1 [4p, 2-[(3-Chlorobenzyl)thio]-5-[(quinolin-8-yloxy)methyl]-1,3,4-oxadiazole] | > 500 | 29.6 | > 500 | 68 | > 500 |  |  |  |  |  | 
12 | Brc1cccc(CSc2nnc(COc3cccc4cccnc34)o2)c1 [4q, 2-[(3-Bromobenzyl)thio]-5-[(quinolin-8-yloxy)methyl]-1,3,4-oxadiazole] | > 500 | 29.6 | > 500 | 78.6 | 427 |  |  |  |  |  | 
13 | Fc1ccc(CSc2nnc(COc3cccc4cccnc34)o2)c(F)c1 [4r, 2-[(2,4-Difluorobenzyl)thio]-5-[(quinolin-8-yloxy)methyl]-1,3,4-oxadiazole] | > 500 | 28.2 | > 500 | 64.5 | > 500 | 98.7 to 105.2 |  |  |  |  | 
14 | Fc1ccc(CSc2nnc(COc3cccc4cccnc34)o2)cc1F [4s, 2-[(3,4-Difluorobenzyl)thio]-5-[(quinolin-8-yloxy)methyl]-1,3,4-oxadiazole] | > 500 | 35.4 | > 500 | 87.2 | > 500 | 98.8 to 101.2 |  |  |  |  | 
15 | Clc1ccc(CSc2nnc(COc3cccc4cccnc34)o2)c(Cl)c1 [4t, 2-[(2,4-Dichlorobenzyl)thio]-5-[(quinolin-8-yloxy)methyl]-1,3,4-oxadiazole] | > 500 | 27.7 | > 500 | 94 | > 500 | 116.7 to 119.7 |  |  |  |  | 
16 | Oc1cccc2cccnc12 [8-HQ, 8-hydroxyquinoline, reference compound] |  |  |  |  |  |  | 29.3 | 184 | > 500 | 51.8 | > 500
17 | CCCCCn1cc(CSc2nnc(COc3cccc4cccnc34)o2)nn1 [12a] | > 500 | 35.2 | > 500 | 90 | > 500 | 90 to 94 |  |  |  |  | 
18 | CCCCCCn1cc(CSc2nnc(COc3cccc4cccnc34)o2)nn1 [12b, 2-{[(1-Hexyl-1H-1,2,3-triazol-4-yl)methyl]thio}-5-[(quinolin-8-yloxy)methyl]-1,3,4-oxadiazole] | > 500 | 36.7 | > 500 | 80 | > 500 |  |  |  |  |  | 
19 | c1ccc(Cn2cc(CSc3nnc(COc4cccc5cccnc45)o3)nn2)cc1 [12c, 2-{[(1-Benzyl-1H-1,2,3-triazol-4-yl)methyl]thio}-5-[(quinolin-8-yloxy)methyl]-1,3,4-oxadiazole] | > 500 | 46.9 | > 500 | 80.2 | > 500 | 68 to 71 |  |  |  |  | 
20 | Clc1ccc(Cn2cc(CSc3nnc(COc4cccc5cccnc45)o3)nn2)cc1 [12d, 2-{[(1-(4-Chlorobenzyl)-1H-1,2,3-triazol-4-yl)methyl]thio}-5-[(quinolin-8-yloxy)methyl]-1,3,4-oxadiazole] | > 500 | 38.1 | > 500 | 80.4 | > 500 | 92 to 96 |  |  |  |  | 
21 | Fc1ccc(Cn2cc(CSc3nnc(COc4cccc5cccnc45)o3)nn2)cc1 [12e, 2-{[(1-(4-Fluorobenzyl)-1H-1,2,3-triazol-4-yl)methyl]thio}-5-[(quinolin-8-yloxy)methyl]-1,3,4-oxadiazole] | > 500 | 39.3 | > 500 | 92.8 | > 500 | 96 to 101 |  |  |  |  | 
22 | Fc1ccc(Cn2cc(CSc3nnc(COc4cccc5cccnc45)o3)nn2)cc1F [12j, 2-{[(1-(3,4-Difluorobenzyl)-1H-1,2,3-triazol-4-yl)methyl]thio}-5-[(quinolin-8-yloxy)methyl]-1,3,4-oxadiazole] | > 500 | 59 | > 500 | 102 | > 500 |  |  |  |  |  | 
23 | O=C1O[C@H]([C@@H](O)CO)C(O)=C1O [Ascorbic acid, reference compound] |  |  | 103 |  |  |  |  |  |  |  | 
24 | O=C(O)c1cc(O)c(O)c(O)c1 [Gallic acid, reference compound] | 729 |  | 17.9 | 26.6 |  |  |  |  |  |  | 
25 | Sc1nnc(COc2cccc3cccnc23)o1 [compound 3, 5-[(Quinolin-8-yloxy)methyl]-1,3,4-oxadiazole-2-thiol] | 464 | 34.7 | > 500 | 25.2 | > 500 |  |  |  |  |  | 
